Data taken from patent US20150065472A1, “INTRAUTERINE APPLICATION OF 18-METHYL-15SS,16SS-METHYLENE-19-NOR-20-SPIROX-4-EN-3-ONE SYSTEMS, INTRAUTERINE SYSTEMS CONTAINING 18-METHYL-15SS,16SS-METHYLENE-19-NOR-20-SPIROX-4-EN-3-ONE, AS WELL AS THE USE THEREOF IN CONTRACEPTION AND GYNAECOLOGICAL THERAPY” (BAYER PHARMA AKTIENGESELLSCHAFT, priority 2012, published 2015).

Tests used:
IGFBP-1 gene expression = assay: Gene expression analysis in rat uterine tissue after IUS (rod) administration; type: in vivo; conditions: rat uterus, FIG. 3/4
Protocol: (§1) The local uterine action of the progestin compared to systemic side effects (dissociation) was investigated on the basis of studies using rats. The uterus of ovary-resected rats responds to implantation of progestin-containing IUS (rods) with decidualization and weight gain. The local progestin effects were also determined on the basis of changes in gene expression.
Ovary-resected female rats were treated with estradiol (E2) for three days (0.2 μg/day/animal, subcutaneous dosing). On day 4, an IUS (rod) was implanted into the right uterine horn of each animal. The left uterine horn remained untreated for internal comparison. Administration of E2 was continued with a daily dose of 0.1 μg/animal to ensure responsiveness of the uterus (maintaining progesterone-receptor expression) to progestins. Blood was taken for LH level measurements on days 4, 10 and 17. […]
Gene expression analysis was carried out with from 50 ng to 200 ng of cDNA per reaction on an SDS7900HT Real.time PCR system (Applied Biosystems, Carlsbad, USA) using TaqMan probes (Applied Biosystems; IGFBP-1 Rn00565713_m1, Cyp26a1 Rn00590308_m1, PPIA Rn00690933_m1) and the Fast Blue qPCR MasterMix Plus (Eurogentec, Liège, Belgium; #RT-QP2X-03+FB). For relative quantification, cyclophilin A (PPIA) was used as an endogenous control. Relative expression levels were calculated according to the comparative delta delta CT method.

[1] = tested on: serum LH level of ovary-resected rats; assay: Serum luteinizing hormone (LH) level in ovary-resected rats carrying IUS (rod); type: in vivo, rat; conditions: FIG. 2/4
Protocol: Serum levels of luteinizing hormone (LH) are used for detecting systemic effects of the locally administered progestin. Basal serum-LH levels of ovary-resected rats are elevated compared to the levels of intact control animals. Undesired systemic efficacy of the uterine-administered progestin can be detected by a decrease in the LH level.
(§2) Ovary-resected female rats were treated with estradiol (E2) for three days (0.2 μg/day/animal, subcutaneous dosing). On day 4, an IUS (rod) was implanted into the right uterine horn of each animal. The left uterine horn remained untreated for internal comparison. Administration of E2 was continued with a daily dose of 0.1 μg/animal to ensure responsiveness of the uterus (maintaining progesterone-receptor expression) to progestins. Blood was taken for LH level measurements on days 4, 10 and 17.

[2] = Break-down in vivo in animal species; conditions: all animal species studied in vivo
[3] = In-vitro metabolic studies (liver); type: in vitro ADME; conditions: all in-vitro metabolic studies (liver)
[4] = target: T1, human androgen receptor (hAR) (Homo sapiens, UniProt P10275); assay: hAR transactivation in PC3 cells stably transfected with hAR and MTV-luc reporter gene; type: cell-based; conditions: MTV-luc reporter
T1 construct: expressed in transfected cells; host or cells: PC3 (human prostate carcinoma) cells, stably transfected with hAR and MTV-luc reporter
T1 sequence (P10275 1-920): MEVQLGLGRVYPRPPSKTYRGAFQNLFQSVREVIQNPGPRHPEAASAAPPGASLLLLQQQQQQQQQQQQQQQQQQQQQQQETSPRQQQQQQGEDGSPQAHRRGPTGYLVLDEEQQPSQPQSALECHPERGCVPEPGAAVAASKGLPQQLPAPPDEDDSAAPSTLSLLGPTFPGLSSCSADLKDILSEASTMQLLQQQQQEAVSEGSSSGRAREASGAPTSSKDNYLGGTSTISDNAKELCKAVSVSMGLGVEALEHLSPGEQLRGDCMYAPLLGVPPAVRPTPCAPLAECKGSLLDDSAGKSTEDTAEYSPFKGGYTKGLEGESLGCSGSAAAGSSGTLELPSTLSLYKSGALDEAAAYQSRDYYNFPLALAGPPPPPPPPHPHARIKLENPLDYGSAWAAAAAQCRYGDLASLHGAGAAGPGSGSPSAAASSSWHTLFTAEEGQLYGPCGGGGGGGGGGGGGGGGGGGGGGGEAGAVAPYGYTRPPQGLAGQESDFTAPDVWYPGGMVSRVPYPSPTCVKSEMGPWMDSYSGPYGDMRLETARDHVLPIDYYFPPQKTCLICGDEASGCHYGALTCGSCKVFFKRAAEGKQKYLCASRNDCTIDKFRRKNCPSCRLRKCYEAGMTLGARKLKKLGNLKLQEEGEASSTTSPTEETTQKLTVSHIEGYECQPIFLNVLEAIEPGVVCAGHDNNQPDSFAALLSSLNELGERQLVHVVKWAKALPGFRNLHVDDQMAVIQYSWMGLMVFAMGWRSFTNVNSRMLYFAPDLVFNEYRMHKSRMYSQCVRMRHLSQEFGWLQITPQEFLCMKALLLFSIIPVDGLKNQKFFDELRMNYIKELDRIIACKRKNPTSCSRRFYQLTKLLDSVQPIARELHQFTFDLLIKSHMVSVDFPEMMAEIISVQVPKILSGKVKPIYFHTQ
Source text: The action on the human androgen receptor (hAR) was studied by means of transactivation analyses. For this, different concentrations of the test substances were to cells with stable expression of the human androgen receptor, and activation of the androgen receptor can be detected via a reporter gene.
For transactivation studies, PC3 (human prostate carcinoma) cells which have been stably transfected with hAR and the MTV-luc reporter gene were used. The culture medium used was RPM! medium (without L-glutamine; without Phenol Red) #E15-49 PAA L-glutamine 200 mM #25030-024 Gibco BRL 100 U/100 μg/ml penicillin/streptomycin Gibco # 15140-122, with 10% foetal calf serum (FCS). The cells were cultured at 37° C. and 5% CO2. The test medium corresponded to the culture medium, except that 10% FCS was replaced with 5% activated carbon-treated FCS (CCS). Cells were seeded in wells of a 96 well plate (“CulturPlate” from Packard #6005180) with 2×10^4 cells/well/200 μl of test medium. The cells were incubated with different concentrations of the test substances, and 80 μl of substrate were measured using the “steadylite HTS Reporter Gene Assay System” from Perkin Elmer.

[5] = tested on: uterus of ovary-resected rats; assay: Uterine weight gain after implantation of progestin-containing IUS (rod) in ovary-resected rats; type: in vivo, rat; conditions: ovary-resected E2-treated rats, IUS (rod) in right uterine horn, FIG. 1/4
Protocol: as §1, §2

[6] = In-vitro break-down (liver) for humans; type: in vitro ADME; conditions: human liver in vitro

Structure (SMILES) | rate of release from the IUS at which IGFBP-1 gene expression is induced, lower than with levonorgestrel (IGFBP-1 gene expression) | LH decrease (systemic side effect) ([1]; 10 μg/animal and day dose of compound A) | LH decrease (systemic side effect) ([1]; compound A release range tested 0.6-10 μg per animal and day (except the 10 μg dose)) | break-down rate in vivo [2] | break-down rate in in-vitro metabolic studies (liver) [3] | EC50 [4] [nM] | local efficacy by way of weight gain in the IUS-carrying uterine horn [5] | break-down rates in vitro (liver) for humans [6] | LH decrease (systemic side effect) ([1]; compound B release range tested 1-45 μg/animal and day)
CC[C@]12CCC3C4CCC(=O)C=C4CCC3C1[C@@H]1C[C@@H]1[C@@]21CCCO1 (stereo partly drawn) [compound A, 18-methyl-15β,16β-methylene-19-nor-20-spirox-4-en-3-one] | approx. 7 × | exception | no LH decrease | very fast | very fast | 6.9 | dose-dependent local efficacy | very rapid | 
CC[C@]12CCC3C4CCC(=O)C=C4[C@H]4C[C@H]4C3C1[C@@H]1C[C@@H]1[C@@]21CCCO1 (stereo partly drawn) [compound B, 18-methyl-6α,7α,15β,16β-dimethylene-19-nor-20-spirox-4-en-3-one] |  |  |  | very fast | very fast | 56 | dose-dependent local efficacy | very rapid | no LH decrease
